Assay results as given in patent US20260035382A1, “COMPOUNDS AS SUMO ACTIVATING ENZYME INHIBITORS” (WIGEN BIOMEDICINE TECHNOLOGY (SHANGHAI) CO., LTD., priority 2022, published 2026).

Target: SAE (Homo sapiens (Human), UniProt Q9UBT2)
Test: In vitro inhibitory activity assay against SAE (SUMO-2/3 immunofluorescence in HCT116 cells)
Assay type: cell-based
Details: 6 h incubation, class symbols, read-out: SUMO IF IC50
Summary of the method: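 HCT116 cells treated with compounds for 6 h at 37 °C, then fixed, permeabilized and immunostained for SUMO-2/3 with FITC secondary detection. Fluorescence compared with DMSO control to give inhibition rate and IC50.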

SAE, sequence (Q9UBT2 whole entry): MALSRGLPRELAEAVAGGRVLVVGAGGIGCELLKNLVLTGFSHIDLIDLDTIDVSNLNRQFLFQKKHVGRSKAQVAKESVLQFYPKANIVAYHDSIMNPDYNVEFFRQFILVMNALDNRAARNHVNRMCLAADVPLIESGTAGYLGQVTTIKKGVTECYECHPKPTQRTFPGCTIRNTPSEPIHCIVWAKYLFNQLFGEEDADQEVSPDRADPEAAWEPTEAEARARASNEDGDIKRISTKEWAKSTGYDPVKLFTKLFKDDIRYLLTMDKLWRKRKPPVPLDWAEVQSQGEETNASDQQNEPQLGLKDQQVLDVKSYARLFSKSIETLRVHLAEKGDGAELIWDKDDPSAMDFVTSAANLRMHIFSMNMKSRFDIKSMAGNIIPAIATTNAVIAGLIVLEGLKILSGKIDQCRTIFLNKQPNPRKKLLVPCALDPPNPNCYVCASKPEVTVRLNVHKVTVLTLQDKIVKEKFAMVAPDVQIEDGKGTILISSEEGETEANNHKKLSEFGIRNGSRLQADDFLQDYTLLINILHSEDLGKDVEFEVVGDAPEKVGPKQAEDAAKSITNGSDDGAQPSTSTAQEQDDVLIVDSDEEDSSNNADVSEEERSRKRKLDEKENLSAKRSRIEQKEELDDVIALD
SAE, sequence (Q9UBE0 whole entry partner): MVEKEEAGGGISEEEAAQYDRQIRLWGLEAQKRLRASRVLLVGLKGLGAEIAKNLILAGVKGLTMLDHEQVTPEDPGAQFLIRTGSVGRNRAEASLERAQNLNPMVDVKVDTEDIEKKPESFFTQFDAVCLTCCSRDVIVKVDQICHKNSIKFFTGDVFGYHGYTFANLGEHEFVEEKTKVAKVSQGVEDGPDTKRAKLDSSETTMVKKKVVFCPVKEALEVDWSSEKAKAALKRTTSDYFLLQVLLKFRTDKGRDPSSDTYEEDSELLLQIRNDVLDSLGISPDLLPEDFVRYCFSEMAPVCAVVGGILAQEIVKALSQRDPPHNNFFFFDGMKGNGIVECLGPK

Row | SMILES | IC50 [µM]
1 | Cc1ccc2c(c1)[C@@]1(CCc3sc(C(=O)c4cncnc4N[C@@H]4C[C@H](COS(N)(=O)=O)[C@@H](O)C4)cc31)NCC2 [Compound 223] | 0.05 to 0.2
2 | NS(=O)(=O)OC[C@H]1C[C@@H](Nc2ncncc2C(=O)c2cc3c(s2)CC[C@]32NCCc3ccc(C4CC4)cc32)C[C@@H]1O [Compound 224] | 0.05 to 0.2
3 | COc1ccc2c(c1)[C@@]1(CCc3sc(C(=O)c4cncnc4N[C@@H]4C[C@H](COS(N)(=O)=O)[C@@H](O)C4)cc31)NCC2 [Compound 225] | 0.05 to 0.2
4 | NS(=O)(=O)OC[C@H]1C[C@@H](Nc2ncncc2C(=O)c2cc3c(s2)CC[C@]32NCCc3ccc(C(F)(F)F)cc32)C[C@@H]1O [Compound 226] | 0.05 to 0.2
5 | NS(=O)(=O)OC[C@H]1C[C@@H](Nc2ncncc2C(=O)c2cc3c(s2)CC[C@]32NCCc3cc(F)c(F)cc32)C[C@@H]1O [Compound 227] | ≤ 0.05
6 | NS(=O)(=O)OC[C@H]1C[C@@H](Nc2ncncc2C(=O)c2cc3c(s2)CC[C@]32NCCc3cc(F)c(Cl)cc32)C[C@@H]1O [Compound 228] | ≤ 0.05
7 | NS(=O)(=O)OC[C@H]1C[C@@H](Nc2ncncc2C(=O)c2cc3c(s2)CC[C@]32NCCc3cc(Cl)c(Cl)cc32)C[C@@H]1O [Compound 229] | ≤ 0.05
8 | Cc1cc2c(cc1Cl)[C@@]1(CCc3sc(C(=O)c4cncnc4N[C@@H]4C[C@H](COS(N)(=O)=O)[C@@H](O)C4)cc31)NCC2 [Compound 230] | ≤ 0.05
9 | N#Cc1cc2c(cc1Cl)[C@@]1(CCc3sc(C(=O)c4cncnc4N[C@@H]4C[C@H](COS(N)(=O)=O)[C@@H](O)C4)cc31)NCC2 [Compound 231] | ≤ 0.05
10 | COc1cc2c(cc1Cl)[C@@]1(CCc3sc(C(=O)c4cncnc4N[C@@H]4C[C@H](COS(N)(=O)=O)[C@@H](O)C4)cc31)NCC2 [Compound 232] | 0.05 to 0.2
11 | NS(=O)(=O)OC[C@H]1C[C@@H](Nc2ncncc2C(=O)c2cc3c(s2)CC[C@]32NCCc3cc(F)c(Cl)c(F)c32)C[C@@H]1O [Compound 233] | ≤ 0.05
12 | NS(=O)(=O)OC[C@H]1C[C@@H](Nc2ncncc2C(=O)c2cc3c(s2)CC[C@]32NCCc3cc(Cl)c(F)cc32)C[C@@H]1O [Compound 234] | ≤ 0.05
13 | NS(=O)(=O)OC[C@H]1C[C@@H](Nc2ncncc2C(=O)c2cc3c(s2)CC[C@]32NCCc3ccncc32)C[C@@H]1O [Compound 235] | 0.05 to 0.2
14 | NS(=O)(=O)OC[C@H]1C[C@@H](Nc2ncncc2C(=O)c2cc3c(s2)CC[C@]32NCCc3cc(Cl)ncc32)C[C@@H]1O [Compound 236] | 0.05 to 0.2
15 | [2H]C1([2H])Cc2ccc(Cl)cc2[C@@]2(C=Cc3sc(C(=O)c4cncnc4N[C@@H]4C[C@H](COS(N)(=O)=O)[C@@H](O)C4)cc32)N1 [Compound 237] | ≤ 0.05
16 | [2H]C1([2H])CN[C@]2(C=Cc3sc(C(=O)c4cncnc4N[C@@H]4C[C@H](COS(N)(=O)=O)[C@@H](O)C4)cc32)c2cc(Cl)ccc21 [Compound 238] | ≤ 0.05
17 | NS(=O)(=O)OC[C@H]1C[C@@H](Nc2ncncc2C(=O)c2cc3c(s2)CO[C@]32NCCc3ccc(Cl)cc32)C[C@@H]1O [Compound 239] | 0.05 to 0.2
18 | NS(=O)(=O)OC[C@H]1C[C@@H](Nc2ncncc2C(=O)c2cc3c(s2)CC[C@]32NCC3(CC3)c3ccc(Cl)cc32)C[C@@H]1O [Compound 240] | 0.05 to 0.2
19 | NS(=O)(=O)OC[C@H]1C[C@@H](Nc2ncncc2C(=O)c2cc3c(s2)CC[C@]32NC3(CC3)Cc3ccc(Cl)cc32)C[C@@H]1O [Compound 241] | 0.05 to 0.2

Row | SMILES | IC50 [µM]
20 | NS(=O)(=O)OC[C@H]1C[C@@H](Nc2ncncc2C(=O)c2cc3c(s2)CC[C@@]32OCCc3ccc(Cl)cc32)C[C@@H]1O [Compound 242] | > 0.2
21 | NS(=O)(=O)OC[C@H]1C[C@@H](Nc2ncncc2C(=O)c2cc3c(s2)CC[C@]32OCCc3ccc(Cl)cc32)C[C@@H]1O [Compound 243] | ≤ 0.05
22 | NS(=O)(=O)OC[C@H]1C[C@@H](Nc2ncncc2C(=O)c2cc3c(s2)CCCC32OCCc3ccccc32)C[C@@H]1O (some centres unmarked) [Compound 244] | > 0.2
23 | NS(=O)(=O)OC[C@H]1C[C@@H](Nc2ncncc2C(=O)c2cc3c(s2)CCC[C@@]32OCCc3ccccc32)C[C@@H]1O [Compound 245] | > 0.2
24 | NS(=O)(=O)OC[C@H]1C[C@@H](Nc2ncncc2C(=O)c2cc3c(s2)CCC[C@]32OCCc3ccccc32)C[C@@H]1O [Compound 246] | 0.05 to 0.2
25 | NS(=O)(=O)OC[C@H]1C[C@@H](Nc2ncncc2C(=O)c2cc3c(s2)CCCC32OCCc3ccc(F)cc32)C[C@@H]1O (some centres unmarked) [Compound 247] | 0.05 to 0.2
26 | NS(=O)(=O)OC[C@H]1C[C@@H](Nc2ncncc2C(=O)c2cc3c(s2)CCC[C@@]32OCCc3ccc(F)cc32)C[C@@H]1O [Compound 248] | > 0.2
27 | NS(=O)(=O)OC[C@H]1C[C@@H](Nc2ncncc2C(=O)c2cc3c(s2)CCC[C@]32OCCc3ccc(F)cc32)C[C@@H]1O [Compound 249] | ≤ 0.05
28 | N#Cc1ccc2c(c1)C1(CCCc3sc(C(=O)c4cncnc4N[C@@H]4C[C@H](COS(N)(=O)=O)[C@@H](O)C4)cc31)OCC2 (some centres unmarked) [Compound 250] | 0.05 to 0.2
29 | N#Cc1ccc2c(c1)[C@]1(CCCc3sc(C(=O)c4cncnc4N[C@@H]4C[C@H](COS(N)(=O)=O)[C@@H](O)C4)cc31)OCC2 [Compound 251] | > 0.2
30 | N#Cc1ccc2c(c1)[C@@]1(CCCc3sc(C(=O)c4cncnc4N[C@@H]4C[C@H](COS(N)(=O)=O)[C@@H](O)C4)cc31)OCC2 [Compound 252] | ≤ 0.05
31 | CN1Cc2sc(C(=O)c3cncnc3N[C@@H]3C[C@H](COS(N)(=O)=O)[C@@H](O)C3)cc2C2(C1)OCCc1ccccc12 (some centres unmarked) [Compound 253] | 0.05 to 0.2
32 | CN1Cc2sc(C(=O)c3cncnc3N[C@@H]3C[C@H](COS(N)(=O)=O)[C@@H](O)C3)cc2[C@@]2(C1)OCCc1ccccc12 [Compound 254] | > 0.2
33 | CN1Cc2sc(C(=O)c3cncnc3N[C@@H]3C[C@H](COS(N)(=O)=O)[C@@H](O)C3)cc2[C@]2(C1)OCCc1ccccc12 [Compound 255] | 0.05 to 0.2
34 | CN1Cc2sc(C(=O)c3cncnc3N[C@@H]3C[C@H](COS(N)(=O)=O)[C@@H](O)C3)cc2C2(C1)OCCc1ccc(F)cc12 (some centres unmarked) [Compound 256] | 0.05 to 0.2
35 | CN1Cc2sc(C(=O)c3cncnc3N[C@@H]3C[C@H](COS(N)(=O)=O)[C@@H](O)C3)cc2[C@@]2(C1)OCCc1ccc(F)cc12 [Compound 257] | > 0.2
36 | CN1Cc2sc(C(=O)c3cncnc3N[C@@H]3C[C@H](COS(N)(=O)=O)[C@@H](O)C3)cc2[C@]2(C1)OCCc1ccc(F)cc12 [Compound 258] | ≤ 0.05
37 | CN1Cc2sc(C(=O)c3cncnc3N[C@@H]3C[C@H](COS(N)(=O)=O)[C@@H](O)C3)cc2C2(C1)OCCc1ccc(Cl)cc12 (some centres unmarked) [Compound 259] | ≤ 0.05
38 | CN1Cc2sc(C(=O)c3cncnc3N[C@@H]3C[C@H](COS(N)(=O)=O)[C@@H](O)C3)cc2[C@@]2(C1)OCCc1ccc(Cl)cc12 [Compound 260] | > 0.2

Row | SMILES | IC50 [µM]
39 | CN1Cc2sc(C(=O)c3cncnc3N[C@@H]3C[C@H](COS(N)(=O)=O)[C@@H](O)C3)cc2[C@]2(C1)OCCc1ccc(Cl)cc12 [Compound 261] | ≤ 0.05
40 | CCN1Cc2sc(C(=O)c3cncnc3N[C@@H]3C[C@H](COS(N)(=O)=O)[C@@H](O)C3)cc2C2(C1)OCCc1ccc(F)cc12 (some centres unmarked) [Compound 262] | 0.05 to 0.2
41 | CCN1Cc2sc(C(=O)c3cncnc3N[C@@H]3C[C@H](COS(N)(=O)=O)[C@@H](O)C3)cc2[C@@]2(C1)OCCc1ccc(F)cc12 [Compound 263] | > 0.2
42 | CCN1Cc2sc(C(=O)c3cncnc3N[C@@H]3C[C@H](COS(N)(=O)=O)[C@@H](O)C3)cc2[C@]2(C1)OCCc1ccc(F)cc12 [Compound 264] | ≤ 0.05
43 | CCN1Cc2sc(C(=O)c3cncnc3N[C@@H]3C[C@H](COS(N)(=O)=O)[C@@H](O)C3)cc2C2(C1)OCCc1ccc(Cl)cc12 (some centres unmarked) [Compound 265] | ≤ 0.05
44 | CCN1Cc2sc(C(=O)c3cncnc3N[C@@H]3C[C@H](COS(N)(=O)=O)[C@@H](O)C3)cc2[C@@]2(C1)OCCc1ccc(Cl)cc12 [Compound 266] | > 0.2
45 | CCN1Cc2sc(C(=O)c3cncnc3N[C@@H]3C[C@H](COS(N)(=O)=O)[C@@H](O)C3)cc2[C@]2(C1)OCCc1ccc(Cl)cc12 [Compound 267] | ≤ 0.05
46 | CC(C)N1Cc2sc(C(=O)c3cncnc3N[C@@H]3C[C@H](COS(N)(=O)=O)[C@@H](O)C3)cc2C2(C1)OCCc1ccc(F)cc12 (some centres unmarked) [Compound 268] | 0.05 to 0.2
47 | CC(C)N1Cc2sc(C(=O)c3cncnc3N[C@@H]3C[C@H](COS(N)(=O)=O)[C@@H](O)C3)cc2[C@@]2(C1)OCCc1ccc(F)cc12 [Compound 269] | > 0.2
48 | CC(C)N1Cc2sc(C(=O)c3cncnc3N[C@@H]3C[C@H](COS(N)(=O)=O)[C@@H](O)C3)cc2[C@]2(C1)OCCc1ccc(F)cc12 [Compound 270] | ≤ 0.05
49 | CC(C)N1Cc2sc(C(=O)c3cncnc3N[C@@H]3C[C@H](COS(N)(=O)=O)[C@@H](O)C3)cc2C2(C1)OCCc1ccc(Cl)cc12 (some centres unmarked) [Compound 271] | 0.05 to 0.2
50 | CC(C)N1Cc2sc(C(=O)c3cncnc3N[C@@H]3C[C@H](COS(N)(=O)=O)[C@@H](O)C3)cc2[C@@]2(C1)OCCc1ccc(Cl)cc12 [Compound 272] | > 0.2
51 | CC(C)N1Cc2sc(C(=O)c3cncnc3N[C@@H]3C[C@H](COS(N)(=O)=O)[C@@H](O)C3)cc2[C@]2(C1)OCCc1ccc(Cl)cc12 [Compound 273] | ≤ 0.05
52 | NS(=O)(=O)OC[C@H]1C[C@@H](Nc2ncncc2C(=O)c2cc3c(s2)CN(C2CC2)C[C@@]32OCCc3ccc(F)cc32)C[C@@H]1O [Compound 275] | > 0.2
53 | NS(=O)(=O)OC[C@H]1C[C@@H](Nc2ncncc2C(=O)c2cc3c(s2)CN(C2CC2)C[C@]32OCCc3ccc(F)cc32)C[C@@H]1O [Compound 276] | ≤ 0.05
54 | NS(=O)(=O)OC[C@H]1C[C@@H](Nc2ncncc2C(=O)c2cc3c(s2)CN(C2CC2)CC32OCCc3ccc(Cl)cc32)C[C@@H]1O (some centres unmarked) [Compound 277] | 0.05 to 0.2
55 | NS(=O)(=O)OC[C@H]1C[C@@H](Nc2ncncc2C(=O)c2cc3c(s2)CN(C2CC2)C[C@@]32OCCc3ccc(Cl)cc32)C[C@@H]1O [Compound 278] | > 0.2
56 | NS(=O)(=O)OC[C@H]1C[C@@H](Nc2ncncc2C(=O)c2cc3c(s2)CN(C2CC2)C[C@]32OCCc3ccc(Cl)cc32)C[C@@H]1O [Compound 279] | ≤ 0.05
